# Laboratory results published in patent US6756504B2, “Sphingolipids” (Yissum Research Development Company of the Hebrew …, priority 2000, dated 2004).
# Experiments:
# [1] = test system: neutral sphingomyelinase; test: Neutral sphingomyelinase inhibition, HL60 sonicate; type: biochemical, Human; conditions: pH 7.4, 300 μM
# Procedure: (§1) N-hexyl-sphingosyl phosphorylcholine (AD-2144) was tested as to its inhibitory effect on sphingomyelinases, acidic (i.e., with an optimum at about pH 5) or neutral (with a pH optimum at about pH 7.4). For this purpose a sonicate of HL60 leukemic cells was used as enzyme source. Increasing concentrations of AD-2144 were dispersed by a mixture of fluorescent and non-fluorescent sphingomyelin (Bodipy-C12-SPM:SPM, 1:19), buffer and 0.25% Triton-X10O in a volume of 100 μl. For acid sphingomyelinase 0.4M acetate buffer pH 5.0 was used; for neutral sphingomyelinase 0.2M Tris buffer, pH 7.4 and 5 mM magnesium chloride. To 100 μl of these dispersions, 100 μl of HL60 cells sonicate were added. Incubation was 2-3 hours after which 0.8 ml of chloroform:methanol 2:1 were added, stirred and the lower, chloroform phase was collected, dried and applied to a thin layer chromatography plate. The plate was developed in a mixture of chloroform and methanol, 87:3. The fluorescence of the product, i.e., Bodipy-C12-ceramide, was quantified.
# [2] = target: T1, acid sphingomyelinase (Homo sapiens, UniProt P17405); test: Acid sphingomyelinase inhibition, HL60 sonicate; type: biochemical; conditions: pH 5.0, 300 μM
# T1 construct: a sonicate of HL60 leukemic cells was used as enzyme source; endogenous in cells; host or cells: HL60 leukemic cells (sonicate)
# T1 sequence (P17405 47-631): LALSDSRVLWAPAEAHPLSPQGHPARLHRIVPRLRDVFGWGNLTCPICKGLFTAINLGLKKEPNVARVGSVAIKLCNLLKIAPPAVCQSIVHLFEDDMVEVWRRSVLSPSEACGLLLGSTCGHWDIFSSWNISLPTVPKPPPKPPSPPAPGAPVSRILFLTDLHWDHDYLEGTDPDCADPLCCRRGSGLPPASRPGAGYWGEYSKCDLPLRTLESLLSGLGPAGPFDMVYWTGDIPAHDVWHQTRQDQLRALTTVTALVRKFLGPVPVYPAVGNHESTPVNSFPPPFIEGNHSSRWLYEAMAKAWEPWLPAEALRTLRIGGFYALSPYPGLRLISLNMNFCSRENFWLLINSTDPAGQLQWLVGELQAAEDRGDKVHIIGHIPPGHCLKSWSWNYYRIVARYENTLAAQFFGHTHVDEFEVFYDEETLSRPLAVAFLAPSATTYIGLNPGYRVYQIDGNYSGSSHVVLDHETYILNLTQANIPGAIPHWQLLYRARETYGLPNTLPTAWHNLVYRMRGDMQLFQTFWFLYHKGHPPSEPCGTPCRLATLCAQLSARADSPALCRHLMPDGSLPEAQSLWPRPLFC
# Procedure: as §1
# [3] = test system: HL60 cells; test: HL60 total protein content (Bradford); type: cell-based, Human
# Procedure: (§2) HL60: Human leukemia cell line (ATCC CCL-240).
# The effect of the AD-2646 compound on cell viability was further supported when the total protein content was quantified. HL60 cells were incubated as described above, with different concentrations of AD-2646. After 2 days the cells were collected, washed twice with saline, dispersed and following a short pulsing with a probe-sonicator their protein content was quantified by the Bradford procedure. Similarly to the viable cell counting results, the protein measurements indicated an IC50 value of 5 μM.
# To analyze whether the AD-2646 compound may mediate its effect on cell viability and on total protein content, in cooperation with other compounds, the cooperative effect of this compound and Taxol was next evaluated. HL60 cells were incubated for two days with 4 μM AD2646 in the presence or absence of 2 ng Taxol.
# The effect of different compounds of the invention on cell viability was next evaluated by measuring total cell protein quantity. Different cell lines were incubated for two days in the presence of increasing concentrations of the different compounds of the present invention.
# [4] = test system: Bod3-SPM (sphingomyelin) synthesis in HL60 cells; test: Sphingolipid metabolism from Bodipy-C3-ceramide: Bod3-SPM in HL60; type: cell-based, Human; conditions: for IC50: HL60, 3 hours, 2.5 μM Bodipy-C3-ceramide, read-out: od 3-SPM (IC50 for reduction of Bod3-SPM, cell+medium); for inhibition of Bod3-SPM (fluorescent image): HL60, 10 μM
# Procedure: (§3) In order to examine the effect of the different compounds on sphingolipids metabolism, different cell lines were incubated with increasing concentrations of different compounds of the invention in the presence of 2.5 μM Bodipy-C3-ceramide that was added to the culture medium as a solution in dimethylsulfoxide (not exceeding 0.1% DMSO of the final volium). After 3 hours, cells and medium were collected and centrifuged. Cells were next extracted with chloroform-methanol containing 2% acetic acid 1:1 (by volume) and the medium was shaken with an equal volume of chloroform-methanol, 1:1 (by volume). The phases were separated by centrifugation and the lower chloroform phase was collected. The solvents were evaporated and applied to thin layer chromatography silica gel plates (Whatman 4865-821) with a concentrating zone.
# (§4) Plates were developed as follows: For medium: in chloroform-methanol-H2O, 75:25:4 by volume. For cells: plates were first developed with chloroform-methanol, 9:1, then dried and re-run in chloroform-methanol: H2O, 65:35:4.
# (§5) Standards of Bodipy-C3-ceramide: Bodipy-C3-glucosylceramide (Bod3-GC) and Bodipy C3 sphingomyelin (Bod3-SPM) were used as markers. The fluorescence of the respective Bod3-SPM and Bod3-GC spots was quantified using a Fuji FLA-2000 scanner.
# [5] = test system: Bod3-SPM synthesis in TSU-PR1 prostate cancer cells; test: Sphingolipid metabolism: Bod3-SPM in TSU-PR1; type: cell-based; conditions: TSU-PR1, 3 hours, FIG. 5; read-out: IC50 for reduction of Bod3-SPM
# Procedure: as §3, §4, §5
# The effect of AD-2646 on sphingolipid metabolism was further examined using TSU-PR1 prostate cancer cells.
# [6] = test system: HL60 cells; test: HL60 cell viability, viable cell count (trypan blue); type: cell-based, Human; conditions: HL60, 2 days, FIG. 1, read-out: IC50, number of living (non-blue) cells
# Procedure: as §2
# The effect of AD-2646 on cell viability was analyzed by measuring cell mortality (viable cell count) and/or total protein quantity.
# HL60 cells grown in RMPI plus 10% fetal calf serum, were incubated with increasing concentrations of (2R,3R)-2-(N-tetradecylamine)-1-(4-nitro-phenyl)-1,3-propanediol (AD-2646) in 6- or 24-well dishes. […] After 2 days the cells were collected, washed twice with saline, treated with trypan blue and the number of living (non-blue) cells was counted. FIG. 1 indicates an IC50 value of 5 μM.
# Kinetic of the observed killing effect of the AD-2646 compound was next examined. HL60 cells were incubated with 40 μM of AD-2646 for 1, 3, 5 and 7 hours. Already after 1 hour a reduction of 60% of the viable cell number was observed.
# [7] = test system: Bod3-GC (glucosylceramide) synthesis in HL60 cells; test: Sphingolipid metabolism from Bodipy-C3-ceramide: Bod3-GC in HL60; type: cell-based, Human; conditions: for reduction of the level of Bod3-GC (fluorescent image): HL60, 10 μM
# Procedure: as §3, §4, §5
# [8] = test system: Swiss mice; test: In vivo toxicity of AD-2646, mice viability
# Procedure: Six groups, each of 5 Swiss mice were injected, intra-peritoneally with solutions of AD-2646, at varying concentrations, each in a volume of 100 μl. Injections were performed on days 1, 2, 3, 4, and mice viability was tested (Table 5).
# [9] = test system: HL60 cells; test: Apoptosis in HL60 cells, propidium iodide flow cytometry (FACS); type: cell-based, Human
# Procedure: The apoptotic effect of three different compounds was further examined on HL60 cells using a flow cytometry method. […] Washed cells were then treated with 5% Triton and stained with propidium iodide 0.5% mg in 0.1% sodium citrate pH 7.4. Analysis was performed using a Becton Dickinson Fluorescence Activated Cell Sorter (FACS).
# [10] = literature (Wieder et al. 1998); cited from earlier work
# [11] = HL60, two days, 4 μM AD-2646 plus 2 ng Taxol
smiles,measurement,setting,value
"CCCCCCCCCCCCC/C=C/[C@H](O)[C@@H](COP(=O)([O-])OCC[N+](C)(C)C)NCCCCCC [AD-2144, L-Erythro Sphingosyl Phosphorylcholine-N-Hexyl]",reduction in Bodipy-C12-ceramide,[1],over 60%
same,reduction in Bodipy-C12-ceramide,[2],over 60%
"CC(C)(C)OC(=O)NCCCCCCCCCCCC(=O)Nc1ccc([C@H](O)[C@@H](CO)NC(=O)OC(C)(C)C)cc1 [AD-2620, (2R,3S)-2-BOC-amino-1-[4-N-(dodecanoyl-12-N-BOC amine)-phenyl)-1,3-propanediol]",IC50,"[3]; HL60, two days, read-out: C50 (cell viability, total cell protein)",3 µM
"CCCCCCCCCCCCCCN[C@H](CO)[C@H](O)c1ccc([N+](=O)[O-])cc1 [AD-2646, (2R,3R)-2-(N-tetradecylamine)-1-(4-nitrophenyl)-1,3-propanediol]",IC50,[4],~6 µM
same,IC50,"[3]; HL60, 2 days, Bradford, read-out: IC50, protein content",5 µM
same,Protein content,[3]; [11],93 µg
same,cooperative effect with Taxol on total protein quantity,[3]; [11],synergism
same,IC50,[5],~5 µM
same,IC50,[6],5 µM
same,IC50,"[7]; HL60, 3 hours, 2.5 μM Bodipy-C3-ceramide, read-out: od 3-GC (IC50 for Bod3-GC reduction)",12 µM
same,No. of mice in each day,"[8]; 1 mg/kg i.p. days 1-4, groups of 5 mice, day 1",5
same,No. of mice in each day,"[8]; 1 mg/kg i.p. days 1-4, groups of 5 mice, day 2",5
same,No. of mice in each day,"[8]; 1 mg/kg i.p. days 1-4, groups of 5 mice, day 3",5
same,No. of mice in each day,"[8]; 1 mg/kg i.p. days 1-4, groups of 5 mice, day 4",5
same,No. of mice in each day,"[8]; 1 mg/kg i.p. days 1-4, groups of 5 mice, day 5",5
same,No. of mice in each day,"[8]; 1 mg/kg i.p. days 1-4, groups of 5 mice, day 6",5
same,No. of mice in each day,"[8]; 5 mg/kg i.p. days 1-4, groups of 5 mice, day 1",5
same,No. of mice in each day,"[8]; 5 mg/kg i.p. days 1-4, groups of 5 mice, day 2",5
same,No. of mice in each day,"[8]; 5 mg/kg i.p. days 1-4, groups of 5 mice, day 3",5
same,No. of mice in each day,"[8]; 5 mg/kg i.p. days 1-4, groups of 5 mice, day 4",5
same,No. of mice in each day,"[8]; 5 mg/kg i.p. days 1-4, groups of 5 mice, day 5",5
same,No. of mice in each day,"[8]; 5 mg/kg i.p. days 1-4, groups of 5 mice, day 6",5
same,No. of mice in each day,"[8]; 10 mg/kg i.p. days 1-4, groups of 5 mice, day 1",5
same,No. of mice in each day,"[8]; 10 mg/kg i.p. days 1-4, groups of 5 mice, day 2",5
same,No. of mice in each day,"[8]; 10 mg/kg i.p. days 1-4, groups of 5 mice, day 3",5
same,No. of mice in each day,"[8]; 10 mg/kg i.p. days 1-4, groups of 5 mice, day 4",5
same,No. of mice in each day,"[8]; 10 mg/kg i.p. days 1-4, groups of 5 mice, day 5",5
same,No. of mice in each day,"[8]; 10 mg/kg i.p. days 1-4, groups of 5 mice, day 6",5
same,No. of mice in each day,"[8]; 25 mg/kg i.p. days 1-4, groups of 5 mice, day 2",5
same,No. of mice in each day,"[8]; 25 mg/kg i.p. days 1-4, groups of 5 mice, day 3",5
same,No. of mice in each day,"[8]; 25 mg/kg i.p. days 1-4, groups of 5 mice, day 4",5
same,No. of mice in each day,"[8]; 25 mg/kg i.p. days 1-4, groups of 5 mice, day 5",5
same,No. of mice in each day,"[8]; 25 mg/kg i.p. days 1-4, groups of 5 mice, day 6",5
same,No. of mice in each day,"[8]; 50 mg/kg i.p. days 1-4, groups of 5 mice, day 1",5
same,No. of mice in each day,"[8]; 50 mg/kg i.p. days 1-4, groups of 5 mice, day 2",5
same,apoptotic cells,"[9]; HL60, 3 hours, 10 μM",12%
same,apoptotic cells,"[9]; HL60, 3 hours, 20 μM",18%
same,apoptotic cells,"[9]; HL60, 3 hours, 40 μM",26%
same,apoptotic cells,"[9]; HL60, 24 hours, 10 μM",about 50%
"CCCCCCCCCCCCCCN[C@H](CO)[C@H](O)c1ccc(N)cc1 [AD-2672, (2R,3R)-2-(N-tetradecylamine)-1-(4-aminophenyl)-1,3-propanediol]",effect on level of Bod3-SPM (fluorescent image),"[4]; HL60, 5 and 10 μM, FIG. 6",strongly reduces
same,IC50,[4],4 µM
same,effect on level of Bod3-GC (fluorescent image),"[7]; HL60, 5 and 10 μM, FIG. 6",not
"CCCCCCCCCCCC(=O)Nc1ccc([C@@H](O)[C@H](N)CO)cc1 [AD-2673, (2R,3R)-2 amino-1-(N-dodecanoylaminophenyl)-1,3-propanediol]",inhibition of Bod3-SPM (fluorescent image),[4]; FIG. 6,low inhibition
same,IC50,[4],6 µM
same,reduction of the level of Bod3-GC (fluorescent image),[7]; FIG. 6,much stronger reduction
CCCCCCCCCCCC(=O)Nc1ccc([C@H](O)[C@@H](N)CO)cc1 [AD-2674],inhibition of Bod3-SPM (fluorescent image),[4]; FIG. 6,low inhibition
same,reduction of the level of Bod3-GC (fluorescent image),[7]; FIG. 6,much stronger reduction
"CCCCCCCCCCCCCCCCOP(=O)([O-])OCC[N+](C)(C)C [HePC, hexadecylphosphocholine]",concentration shown to induce apoptosis,[10],25 µM
"CC(=O)O[C@H]1C(=O)[C@@]2(C)[C@H]([C@H](OC(=O)c3ccccc3)[C@]3(O)C[C@H](OC(=O)[C@H](O)[C@@H](NC(=O)c4ccccc4)c4ccccc4)C(C)=C1C3(C)C)[C@]1(OC(C)=O)CO[C@@H]1C[C@@H]2O [Taxol, reference compound]",Protein content,"[3]; HL60, two days, 2 ng Taxol alone",206 µg
